Assay results from US20250177346A1 (priority 2022, published 2025).

Tests used:
C57BL/6 mouse model [1] = details: in vivo
C57BL/6 mouse model [2] = details: in vivo; remark: listed apart in the source
[3] = tested on: hair dermal papilla cells derived from human hair follicles; assay type: cell-based
[4] = tested on: outer root sheath cells (ORSs) derived from human hair follicles; assay type: cell-based
[5] = tested on: hair dermal papilla cells (HDPCs) derived from human hair follicles; assay type: cell-based
[6] = tested on: outer root sheath cells derived from human hair follicles; assay type: cell-based
human hair follicles [7] = assay type: cell-based
human hair follicles [8] = assay type: cell-based; remark: listed apart in the source
[9] = tested on: human hair dermal papilla cells; assay type: cell-based
[10] = tested on: outer root sheath cells derived from human hair follicles; assay type: cell-based; remark: listed apart in the source

## Nc1cc(N2CCCCC2)nc(N)[n+]1[O-] [minoxidil, 6-piperidin-1-ylpyrimidine-2,4-diamine 3-oxide]
C57BL/6 mouse model [1]
  hair growth / area of hair growth in the anagen phase: hair growth was shown

## O=C(NCc1ccc2c(c1)OCO2)c1c(Cl)cccc1Cl [Alda-1, N-(1,3-benzodioxol-5-ylmethyl)-2,6-dichlorobenzamide]
C57BL/6 mouse model [2]
  anagen induction score: increased compared to the control
  formation of hair follicles (hematoxylin and eosin staining): promoted
  percentage of areas where hair in the anagen phase grew: significantly increased
  skin thickness: increased compared to the control
[3]
  fluorescence level indicating DCFDA (oxidative stress): significantly reduced
C57BL/6 mouse model [1]
  hair growth / area of hair growth in the anagen phase: hair growth was shown
[4]
  cell viability of outer root sheath cells: significantly increased
  proliferation of outer root sheath cells compared with minoxidil: equivalent to or greater than those of minoxidil
[5]
  cell viability of hair dermal papilla cells: significantly increased
  proliferation of hair dermal papilla cells compared with minoxidil: equivalent to or greater than those of minoxidil
[6]
  oxidative stress in outer root sheath cells (DCFDA level, flow cytometry): significantly reduced
Human hair follicles [7]
  Ki-67 positive cell effect compared with minoxidil: even better than that of minoxidil
  level of Ki-67 positive cells in hair follicles: increased
Human hair follicles [8]
  elongation of hair in human hair follicles: promoted the elongation of hair
  growth of hair in hair follicles compared with minoxidil: higher levels compared to minoxidil
[9]
  protein level of basic fibroblast growth factor (bFGF): increased
  protein level of insulin-like growth factor 1 (IGF-1): increased
  protein level of keratinocyte growth factor (FGF-7): increased
  protein level of platelet-derived growth factor (PDF): increased
[10]
  ATP production of mitochondria, increase: ~10 fold
  basal respiration rate: remarkably increased
  maximal respiration rate: remarkably increased
  oxygen consumption efficiency of outer root sheath cells: increased
